Read-outs that look alike come from different tables or passages of the source.
Legend:
physchem = format: physicochemical; conditions: for solubility: water
Experimental: (§1) On the other hand, radiologists need compounds with a wide range of uses: for example, angiography, urography, myelography, cisternography, lymphography, cardiography and gastrography. The products according to this invention fulfil the requirements for the above uses, as they have high water solubility, normally higher than 60% (w/v), which, in some cases, is as high as 100% at 20°C, without showing any tendency to crystallize. They also have a very low general toxicity, stated as the average lethal dose for the rat, DL₅₀.

[1] = Osmolality of aqueous solution at 300 mg I/ml; format: physicochemical; conditions: for OSMOLALITY mOsm/kg at 300 mg I/ml: 300 mg I/ml (Table II); for OSMOLALITY 37°C mOsm/kg at 300 mg I/ml: 300 mg I/ml (Table I)
[2] = Viscosity of aqueous solution at 300 mg I/ml; format: physicochemical; conditions: for VISCOSITY mPas (37°C) at 300 mg I/ml: 300 mg I/ml (Table II); for VISCOSITY 37°C mPa.s 300 mg I/ml: 300 mg I/ml (Table I)
RAT = assay: General toxicity, average lethal dose (DL50) in the rat, i.v.; format: in vivo
Experimental: as §1

[3] = 20°C (Table II), read-out: SOLUBILITY IN WATER at 20°

Compound | solubility (physchem; [3]) [mg/mL] | OSMOLALITY mOsm/kg at 300 mg I/ml [1] [mOsm/kg] | VISCOSITY mPas (37°C) at 300 mg I/ml [2] [mPas] | also measured
CN(CC(=O)N(C)c1c(I)c(C(=O)NCC(O)CO)c(I)c(C(=O)NCC(O)CO)c1I)CC(=O)N(C)c1c(I)c(C(=O)NCC(O)CO)c(I)c(C(=O)NCC(O)CO)c1I (stereo not drawn) [ICJ-2992, N,N'-Bis-{3,5-bis-[N-(2,3-dihydroxypropyl)carbamoyl]-2,4,6-triiodophenyl}-N,N'-dimethyl-3-methyl-3-azapentanediamide] | > 600 | – | – | –
CN(C(=O)CN(CCO)CC(=O)Nc1c(I)c(C(=O)NCCO)c(I)c(C(=O)NCCO)c1I)c1c(I)c(C(=O)NC(CO)C(O)CO)c(I)c(C(=O)NC(CO)C(O)CO)c1I (stereo not drawn) [ICJ-1892, N{3,5-Bis-[N-(1-hydroxymethyl-2,3-dihydroxypropyl)carbamoyl]-2,4,6-triiodophenyl}-N-methyl-N'-{3,5-bis-[N-(2-hydroxyethyl)carbamoyl]-2,4,6-triiodophenyl}-3-(2-hydroxyethyl)-3-azapentanediamide] | > 600 | 133 | 9.7 | –
CC(=O)N(CC(O)CN(C(C)=O)c1c(I)c(C(=O)NCC(O)CO)c(I)c(C(=O)NCC(O)CO)c1I)c1c(I)c(C(=O)NCC(O)CO)c(I)c(C(=O)NCC(O)CO)c1I (stereo not drawn) [IODIXANOL, Iodixanol, reference compound] | – | – | – | OSMOLALITY 37°C mOsm/kg at 300 mg I/ml [1]: 190 mOsm/kg; VISCOSITY 37°C mPa.s 300 mg I/ml [2]: 8.7 mPa.s; DL50 (RAT) via i.v. g I/kg (RAT): > 20 g I/kg; solubility (physchem): > 600 mg/mL
O=C(CN(CCO)CC(=O)Nc1c(I)c(C(=O)NCCO)c(I)c(C(=O)NCCO)c1I)Nc1c(I)c(C(=O)NCCO)c(I)c(C(=O)NCCO)c1I [ICJ-1392, N,N'-Bis-{3,5-bis-[N-(2-hydroxyethyl)carbamoyl]-2,4,6-triiodophenyl}-3-(2-hydroxyethyl)-3-azapentanedimide] | < 600 | – | – | –
O=C(CN(CC(=O)Nc1c(I)c(C(=O)NCC(O)CO)c(I)c(C(=O)NCC(O)CO)c1I)CC(O)CO)Nc1c(I)c(C(=O)NCCO)c(I)c(C(=O)NCCO)c1I (stereo not drawn) [ICJ-1492, N-{3,5-bis-[N-(2,3-dihydroxypropyl)carbamoyl]-2,4,6-triiodophenyl}-N'-{3,5-bis-[N-(2-hydroxyethyl)carbamoyl]-2,4,6-triiodophenyl)-3-(2,3-dihydroxypropyl)-3-azapentanediamide] | < 600 | 137 | 9.5 | –
CN(CC(=O)Nc1c(I)c(C(=O)NCC(O)CO)c(I)c(C(=O)NCC(O)CO)c1I)CC(=O)Nc1c(I)c(C(=O)NCC(O)CO)c(I)c(C(=O)NCC(O)CO)c1I (stereo not drawn) [ICJ-2792, N,N'-Bis-{3,5-bis-[N-(2,3-dihydroxypropyl)carbamoyl]-2,4,6-triiodophenyl}-3-methyl-3-azapentanediamide] | < 600 | – | – | –
CN(C(=O)CN(CCO)CC(=O)N(C)c1c(I)c(C(=O)NCCO)c(I)c(C(=O)NCCO)c1I)c1c(I)c(C(=O)NCCO)c(I)c(C(=O)NCCO)c1I [ICJ-2392, N,N'-Bis-{3,5-bis-[N-(2-hydroxethyl)carbamoyl]-2,4,6-triiodophenyl}-N,N'-dimethyl-3-(2-hydroxyethyl)-3-azapentanedimide] | < 600 | – | – | –
COCCN(CC(=O)Nc1c(I)c(C(=O)NCC(O)CO)c(I)c(C(=O)NCC(O)CO)c1I)CC(=O)Nc1c(I)c(C(=O)NCC(O)CO)c(I)c(C(=O)NCC(O)CO)c1I (stereo not drawn) [ICJ-2692, N,N'-Bis-{3,5-bis-[N-(2,3-dihydroxypropyl)carbamoyl]-2,4,6-triiodophenyl}-3-(2-methoxyethyl)-3-azapentanediamide] | > 600 | 185 | 9.7 | –
CN(C(=O)CN(CCO)CC(=O)N(C)c1c(I)c(C(=O)NCC(O)CO)c(I)c(C(=O)NCC(O)CO)c1I)c1c(I)c(C(=O)NCCO)c(I)c(C(=O)NCCO)c1I (stereo not drawn) [ICJ-2292, N-{3,5-Bis-[N-(2,3-dihydroxypropyl)carbamoyl]-2,4,6-triiodophenyl}-N'-{3,5-bis-[N-(2-hydroxyethyl)carbamoyl]-2,4,6-triiodophenyl}-N,N'-dimethyl-3-(2-hydroxyethyl)-3-azapentanediamide] | > 600 | 162 | 11.0 | –
CN(C(=O)CN(CCO)CC(=O)Nc1c(I)c(C(=O)NCCO)c(I)c(C(=O)NCCO)c1I)c1c(I)c(C(=O)NCC(O)CO)c(I)c(C(=O)NCC(O)CO)c1I (stereo not drawn) [ICJ-2492, N-{3,5-Bis-[N-(2,3-dihydroxpropyl)carbamoyl]-2,4,6-triiodophenyl}-N-methyl-N'-{3,5-bis-[N-(2-hydroxyethyl)carbamoyl]-2,4,6-triiodophenyl}-3-(2-hydroxyethyl)-3-azapentanediamide] | < 600 | – | – | –
CN(C(=O)CN(CCO)CC(=O)Nc1c(I)c(C(=O)NC(CO)C(O)CO)c(I)c(C(=O)NC(CO)C(O)CO)c1I)c1c(I)c(C(=O)NCCO)c(I)c(C(=O)NCCO)c1I (stereo not drawn) [ICJ-1992, N-{3,5-Bis-[N-(1-hydroxymethyl-2,3-dihydroxypropyl)carbamoyl]-2,4,6-triiodophenyl}-N'-methyl-N'-{3,5-bis-[N-(2-hydroxyethyl)carbamoyl]-2,4,6-triiodophenyl}-3-(2-hydroxyethyl)-3-azapentanediamide] | > 600 | 164 | 9.1 | –
O=C(CN(CCO)CC(=O)Nc1c(I)c(C(=O)NC(CO)C(O)CO)c(I)c(C(=O)NC(CO)C(O)CO)c1I)Nc1c(I)c(C(=O)NCCO)c(I)c(C(=O)NCCO)c1I (stereo not drawn) [ICJ-1592] | – | 151 | 8.4 | OSMOLALITY 37°C mOsm/kg at 300 mg I/ml [1]: 151 mOsm/kg; VISCOSITY 37°C mPa.s 300 mg I/ml [2]: 8.4 mPa.s; DL50 (RAT) via i.v. g I/kg (RAT): > 20 g I/kg; SOLUBILITY IN WATER at 20° (physchem): > 60%; solubility (physchem): > 600 mg/mL
O=C(CN(CCO)CC(=O)Nc1c(I)c(C(=O)NCC(O)CO)c(I)c(C(=O)NCC(O)CO)c1I)Nc1c(I)c(C(=O)NCCO)c(I)c(C(=O)NCCO)c1I (stereo not drawn) [ICJ-1292, N-{3,5-Bis-[N-(2,3-dihydroxypropyl)carbamoyl]-2,4,6-triiodophenyl}-N'-{3,5-bis-[N-(2-hydroxyethyl)carbamoyl]-2,4,6-triiodophenyl}-3-(2-hydroxyethyl)-3-azapentanediamide] | < 600 | – | – | –
O=C(CN(CC(=O)Nc1c(I)c(C(=O)NCC(O)CO)c(I)c(C(=O)NCC(O)CO)c1I)CC(O)CO)Nc1c(I)c(C(=O)NCC(O)CO)c(I)c(C(=O)NCC(O)CO)c1I (stereo not drawn) [ICJ-1092, N,N'-Bis-{3,5-bis-[N-(2,3-dihydroxypropyl)carbamoyl]-2,4,6-triiodophenyl}-3-(2,3-dihydroxypropyl)-3-azapentanediamide] | > 600 | 193 | 10.3 | –
COCCN(CC(=O)N(C)c1c(I)c(C(=O)NCC(O)CO)c(I)c(C(=O)NCC(O)CO)c1I)CC(=O)N(C)c1c(I)c(C(=O)NCC(O)CO)c(I)c(C(=O)NCC(O)CO)c1I (stereo not drawn) [ICJ-2892, N,N'-Bis-{3,5-bis-[N-(2,3-dihydroxypropyl)carbamoyl]-2,4,6-triiodophenyl}-N,N'-dimethyl-3-(2-methoxymethyl)-3-azapentanediamide] | > 600 | 200 | 10.8 | –
CN(C(=O)CN(CCO)CC(=O)N(C)c1c(I)c(C(=O)NC(CO)C(O)CO)c(I)c(C(=O)NC(CO)C(O)CO)c1I)c1c(I)c(C(=O)NCCO)c(I)c(C(=O)NCCO)c1I (stereo not drawn) [ICJ-2092, N-{3,5-Bis-[N-(1-hydroxymethyl-2,3-dihydroxypropyl)carbamoyl]-2,4,6-triiodophenyl}-N'-{3,5-bis-[N-(2-hydroxyethyl)carbamoyl]-2,4,6-triiodophenyl}-N,N'-dimethyl-3-(2-hydroxyethyl)-3-azapentanediamide] | > 600 | 188 | 9.5 | –
O=C(CN(CC(=O)Nc1c(I)c(C(=O)NCCO)c(I)c(C(=O)NCCO)c1I)C(CO)C(O)CO)Nc1c(I)c(C(=O)NCCO)c(I)c(C(=O)NCCO)c1I (stereo not drawn) [ICJ-2592, N,N'-Bis-{3,5-bis-[N-(2-hydroxyethyl)carbamoyl]-2,4,6-triiodophenyl}-3-(1-hydroxymethyl-2,3-dihydroxypropyl)-3-azapentanediamide] | > 600 | 180 | 9.1 | –
CN(C(=O)CN(CCO)CC(=O)Nc1c(I)c(C(=O)NCC(O)CO)c(I)c(C(=O)NCC(O)CO)c1I)c1c(I)c(C(=O)NCC(O)CO)c(I)c(C(=O)NCC(O)CO)c1I (stereo not drawn) [ICJ-1792, N,N'-Bis-{3,5-bis-[N-(2,3-dihydroxypropyl)carbamoyl]-2,4,6-triiodophenyl}-N-methyl-3-(2-hydroxyethyl)-3-azapentanediamide] | > 600 | 157 | 10.6 | –
CN(C(=O)CN(CCO)CC(=O)Nc1c(I)c(C(=O)NCC(O)CO)c(I)c(C(=O)NCC(O)CO)c1I)c1c(I)c(C(=O)NCCO)c(I)c(C(=O)NCCO)c1I (stereo not drawn) [ICJ-2192, N-{3,5-Bis-[N-(2,3-dihydroxpropyl)carbamoyl]-2,4,6-triiodophenyl}-N'-methyl-N'-{3,5-bis-[N-(2-hydroxyethyl)carbamoyl]-2,4,6-triiodophenyl}-3-(2-hydroxyethyl)-3-azapentanediamide] | < 600 | – | – | –

— patent publication EP0647618A1, “NEW NON IONIC IODINE-CONTAINING DIMERS USEFUL AS X-RAY CONTRAST AGENTS, METHOD FOR THE PREPARATION THEREOF, AND GALENICAL COMPOSITIONS CONTAINING THEM” (CENTRO INVESTIGACION JUSTESA IMAGEN S.A., priority 1993, dated 1994)
